# Reference: patent US20250003877A1, “Silyl Bridged Dyes” (priority 2021, published 2025)
# Like-named read-outs stand apart in the source and are kept apart here.
# What was measured:
# [1] = test system: HaloTag®-GFP-expressing HeLa cells; experiment: No-wash live cell imaging of HaloTag-expressing cells with a Si-bridge dye; format: cell-based; conditions: 200 nM dye, 15 min, 37° C., HeLa transfected with pHaloTag®-EGFP
# Description: HeLa cells were seeded in 35 mm glass bottom dishes (Cellvis, catalog no. D35-28-O—N), and transfected with pHaloTag®-EGFP (Addgene #86629). Transient transfections were performed using Lipofectamine 2000 (Invitrogen, catalog no. 1168019) following the manufacturer's instructions. HeLa cell labeling and confocal imaging were performed 24 hr after transfection.
# Labeling with JF646-HaloTag® ligand (Promega) and new dyes containing HaloTag® ligands were performed following the manufacturer's instructions. Briefly, cells were incubated with 200 nM dye in DMEM for 15 min at 37° C. Subsequently, images were obtained on a Leica SP-8 Confocal Microscope (SCOPE core facility, UMass Medical School), using a 40×1.15 Oil DIC objective. EGFP was excited with the Argon (488 nm) laser at a 15% intensity and detected through a 505-530 band pass filter and a pinhole set to 53.12 μm. Dyes fluorescing in the Cy5 channel were excited with the HeNe (633 nm) laser at a 15% intensity and detected through a 640-615 band pass filter and […] pinhole. Image analysis was performed using Leica LAS X SP8 software and ImageJ software.
# [2] = for ϕ (quantum yield): pH 7.4
# [3] = KL-Z lactone-zwitterion equilibrium; format: physicochemical; conditions: 1:1 v/v dioxane:water
# [4] = literature values; cited from earlier work
# [5] = spirolactone dyes, table title says PBS, text (b560-b564) says maximal ε when ring-opened in EtOH/0.1% TFA
# [6] = spirolactone dyes, ϕ in PBS × ε in EtOH/0.1% TFA
smiles,measurement,setting,value
"CN(C)c1ccc2c(c1)[Si@](C)(CCCSCC(=O)NCCOCCOCCCCCCCl)c1cc(N(C)C)ccc1[C@]21OC(=O)c2ccccc21 [Compound 044, 2-((3-((5s,10s)-3,7-Bis(dimethylamino)-5-methyl-3′-oxo-3′H,5H-spiro[dibenzo[b,e]siline-10,1′-isobenzofuran]-5-yl)propyl)thio)-N-(2-(2-((6-chlorohexyl)oxy)ethoxy)ethyl)acetamide]",fluorescence contrast / background / localisation in cells,[1],poorly fluorescent in all cells
same,labeling of HaloTag®-expressing cells,[1],did not label HaloTag®-expressing cells
"C[Si]1(C)c2cc(N3CCC3)ccc2C2(OC(=O)c3ccccc32)c2ccc(N3CCC3)cc21 [Compound 031, 3,7-Di(azetidin-1-yl)-5,5-dimethyl-3′H,5H-spiro[dibenzo[b,e]siline-10,1′-isobenzofuran]-3′-one, reference compound]",Em (nm),[2]; PBS,664 nm
same,Ex (nm),[2]; PBS,646 nm
same,ϕ (quantum yield),[2]; PBS,0.45
same,ε (M^−1 cm^−1),[2]; [5],"156,000 M^−1 cm^−1"
same,Brightness (ϕ × ε),[2]; [6],"70,200"
same,KL-Z lactone-zwitterion equilibrium value,[3],0.0034
"CN(C)c1ccc2c(c1)[Si@](C)(CCCSCCOCCOCCOCCOCCCCCCCl)c1cc(N(C)C)ccc1[C@@]21OC(=O)c2ccccc21 [Compound 051, (5r,10r)-5-(22-Chloro-7,10,13,16-tetraoxa-4-thiadocosyl)-3,7-bis(dimethylamino)-5-methyl-3′H,5H-spiro[dibenzo[b,e]siline-10,1′-isobenzofuran]-3′-one]",fluorescence contrast / background / localisation in cells,[1],significant background
same,labeling of HaloTag®-expressing cells,[1],labeled HaloTag®-expressing cells
"Cc1ccccc1C1=c2cc3c(cc2[Si](C)(C)c2cc4c(cc21)CCCN4C)=[N+](C)CCC3 [Compound 016, 1,11,13,13-Tetramethyl-6-(o-tolyl)-2,3,4,8,9,10,11,13-octahydrosilino[3,2-g:5,6-g′]diquinolin-1-ium, reference compound]",Brightness (ϕ × ε),[2],"41,850"
same,Em (nm),[2],692 nm
same,Ex (nm),[2],674 nm
same,ε (M^−1 cm^−1),[2],"135,000 M^−1 cm^−1"
same,ϕ (quantum yield),[2]; PBS,0.31
same,"emission wavelength, literature value",[4],689 nm
same,"excitation wavelength, literature value",[4],674 nm
same,"ε, literature value",[4],1.3×10^5
same,"ϕ, literature value",[4],0.35
"CN(C)c1ccc2c(c1)[Si@](C)(CCCSCCOCCOCCOCCOCCCCCCCl)c1cc(N(C)C)ccc1[C@]21OC(=O)c2ccccc21 [Compound 050, (5s,10s)-5-(22-Chloro-7,10,13,16-tetraoxa-4-thiadocosyl)-3,7-bis(dimethylamino)-5-methyl-3′H,5H-spiro[dibenzo[b,e]siline-10,1′-isobenzofuran]-3′-one]",fluorescence contrast / background / localisation in cells,[1],high background
same,labeling of HaloTag®-expressing cells,[1],did not label HaloTag®-expressing cells
"Cc1ccccc1C1=c2cc3c(cc2[Si](C)(C)c2cc4c(cc21)CCN4C)=[N+](C)CC3 [Compound 020, 1,9,11,11-Tetramethyl-5-(o-tolyl)-2,3,7,8,9,11-hexahydrosilino[3,2-f:5,6-f]diindol-1-ium, reference compound]",Brightness (ϕ × ε),[2],"17,000"
same,Em (nm),[2],715 nm
same,Ex (nm),[2],690 nm
same,ε (M^−1 cm^−1),[2],"100,000 M^−1 cm^−1"
same,ϕ (quantum yield),[2]; PBS,0.17
same,"emission wavelength, literature value",[4],712 nm
same,"excitation wavelength, literature value",[4],691 nm
same,"ε, literature value",[4],1.0×10^5
same,"ϕ, literature value",[4],0.12
"CN(C)c1ccc2c(c1)[Si](C)(C)c1cc(N(C)C)ccc1C21OC(=O)c2ccccc21 [Compound 032, 3,7-Bis(dimethylamino)-5,5-dimethyl-3′H,5H-spiro[dibenzo[b,e]siline-10,1′-isobenzofuran]-3′-one, reference compound]",Em (nm),[2]; PBS,667 nm
same,Ex (nm),[2]; PBS,648 nm
same,ϕ (quantum yield),[2]; PBS,0.38
same,ε (M^−1 cm^−1),[2]; [5],"130,000 M^−1 cm^−1"
same,Brightness (ϕ × ε),[2]; [6],"49,400"
same,KL-Z lactone-zwitterion equilibrium value,[3],0.002
C[Si]1(C)c2cc(N3CCC3)ccc2C2(OC(=O)c3ccc(C(=O)NCCOCCOCCCCCCCl)cc32)c2ccc(N3CCC3)cc21 [JF646-HaloTag® ligand],fluorescence contrast / background / localisation in cells,[1],high contrast images
"C=C[Si]1(C=C)c2cc(N3CCC3)ccc2C2(OC(=O)c3ccccc32)c2ccc(N3CCC3)cc21 [Compound 034, 3,7-Di(azetidin-1-yl)-5,5-divinyl-3′H,5H-spiro[dibenzo[b,e]siline-10,1′-isobenzofuran]-3′-one]",extinction coefficient (maximum) in EtOH/0.1% TFA,[2]; EtOH/0.1% TFA,"80,000 M−1 cm−1"
same,Em (nm),[2]; SDS,675 nm
same,Ex (nm),[2]; SDS,656 nm
same,extinction coefficient in anhydrous EtOH/0.1% TFA,[2]; anhydrous EtOH/0.1% TFA,~144 000 M−1 cm-1
same,ε (M^−1 cm^−1),[2]; [5],"80,000 M^−1 cm^−1"
same,KL-Z lactone-zwitterion equilibrium value,[3],0.00125
"CN(C)c1ccc2c(c1)[Si@](C)(CCCSCC(=O)NCCOCCOCCCCCCCl)c1cc(N(C)C)ccc1[C@@]21OC(=O)c2ccccc21 [Compound 045, 2-((3-((5r,10r)-3,7-Bis(dimethylamino)-5-methyl-3′-oxo-3′H,5H-spiro[dibenzo[b,e]siline-10,1′-isobenzofuran]-5-yl)propyl)thio)-N-(2-(2-((6-chlorohexyl)oxy)ethoxy)ethyl)acetamide]",fluorescence contrast / background / localisation in cells,[1],bright high contrast images that correlated strongly to GFP expression
"COc1cccc(OC)c1C1=C2C=CC(=[N+](C)C)C=C2[Si@](C)(CCCSCCOCCOCCOCCOCCCCCCCl)c2cc(N(C)C)ccc21 [Compound 049, N-(5-(22-Chloro-7,10,13,16-tetraoxa-4-thiadocosyl)-10-(2,6-dimethoxyphenyl)-7-(dimethylamino)-5-methyldibenzo[b,e]silin-3(5H)-ylidene)-N-methylmethanaminium]",fluorescence contrast / background / localisation in cells,[1],only stained mitochondria
same,labeling of HaloTag®-expressing cells,[1],did not label HaloTag®-expressing cells
"Cc1ccccc1C1=C2C=CC(=[N+](C)C)C=C2[Si](C)(C)c2cc(N(C)C)ccc21 [Compound 001, N-(7-(Dimethylamino)-5,5-dimethyl-10-(o-tolyl)dibenzo[b,e]silin-3(5H)-ylidene)-N-methylmethanaminium, reference compound]",Brightness (ϕ × ε),[2]; PBS,"43,102"
same,Em (nm),[2]; PBS,663 nm
same,Ex (nm),[2]; PBS,648 nm
same,ε (M^−1 cm^−1),[2]; PBS,"126,400 M^−1 cm^−1"
same,ϕ (quantum yield),[2]; PBS,0.34
same,"emission wavelength, literature value",[4],658 nm
same,"excitation wavelength, literature value",[4],644 nm
same,"ε, literature value",[4],1.1×10^5
same,"ϕ, literature value",[4],0.31
